Assay results: ChEMBL document CHEMBL1201862, “PubChem BioAssay data set” (2004)
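Assay format: 96-well plates, 48-hour exposure. GI50: concentration for 50% inhibition of growth.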 Activity calls are given as the source filed them. No stated cut-off is given here; in the data, active = GI50 up to about 1.1 µM and inactive = higher.

Columns and labels:
Assay in all cases: inhibition of tumour cell growth, NCI panel, 48 h
OVCAR-5 = test system: OVCAR-5
SK-MEL-28 = test system: SK-MEL-28
NCI-H460 = test system: NCI-H460
T47D = test system: T47D
NCI-H226 = test system: NCI-H226
CCRF-CEM = test system: CCRF-CEM
U-251 = test system: U-251
RXF 393 = test system: RXF 393
M14 = test system: M14
K562 = test system: K562
786-0 = test system: 786-0
HCC 2998 = test system: HCC 2998
UACC-62 = test system: UACC-62
NCI-H23 = test system: NCI-H23
HCT-15 = test system: HCT-15
HOP-92 = test system: HOP-92
BT-549 = test system: BT-549
MDA-N = test system: MDA-N
SN12C = test system: SN12C
Malme-3M = test system: Malme-3M
SK-MEL-5 = test system: SK-MEL-5
MDA-MB-231 = test system: MDA-MB-231
HL-60 = test system: HL-60
UACC-257 = test system: UACC-257
SF-295 = test system: SF-295
NCI/ADR-RES = test system: NCI/ADR-RES
HT-29 = test system: HT-29
MCF7 = test system: MCF7
OVCAR-3 = test system: OVCAR-3
PC-3 = test system: PC-3
RPMI-8226 = test system: RPMI-8226
EKVX = test system: EKVX
DU-145 = test system: DU-145
IGROV-1 = test system: IGROV-1
TK-10 = test system: TK-10
OVCAR-4 = test system: OVCAR-4
SF-539 = test system: SF-539
SK-OV-3 = test system: SK-OV-3
MDA-MB-435 = test system: MDA-MB-435
MOLT-4 = test system: MOLT-4
A549 = test system: A549
HCT-116 = test system: HCT-116
SW-620 = test system: SW-620
ACHN = test system: ACHN
SF-268 = test system: SF-268
HOP-62 = test system: HOP-62
OVCAR-8 = test system: OVCAR-8
COLO 205 = test system: COLO 205
Hs-578T = test system: Hs-578T
NCI-H522 = test system: NCI-H522
SNB-75 = test system: SNB-75
KM12 = test system: KM12
SNB-19 = test system: SNB-19
CAKI-1 = test system: CAKI-1
UO-31 = test system: UO-31
LOX IMVI = test system: LOX IMVI
SK-MEL-2 = test system: SK-MEL-2

SMILES: CC(=O)CC1CCC(=O)CCC(=O)OC(CC(C)=O)CCC(=O)CCC(=O)O1 (stereo not drawn)
- GI50 (OVCAR-5): > 100 µM (inactive)
- GI50 (SK-MEL-28): > 100 µM (inactive)
- GI50 (NCI-H460): > 100 µM (inactive)
- GI50 (T47D): > 100 µM (inactive)
- GI50 (NCI-H226): > 100 µM (inactive)
- GI50 (CCRF-CEM): > 100 µM (inactive)
- GI50 (U-251): > 100 µM (inactive)
- GI50 (RXF 393): > 100 µM (inactive)
- GI50 (M14): > 100 µM (inactive)
- GI50 (K562): > 100 µM (inactive)
- GI50 (786-0): > 100 µM (inactive)
- GI50 (HCC 2998): > 100 µM (inactive)
- GI50 (UACC-62): > 100 µM (inactive)
- GI50 (NCI-H23): > 100 µM (inactive)
- GI50 (HCT-15): > 100 µM
- GI50 (HOP-92): > 100 µM (inactive)
- GI50 (BT-549): > 100 µM (inactive)
- GI50 (MDA-N): > 100 µM (inactive)
- GI50 (SN12C): > 100 µM (inactive)
- GI50 (Malme-3M): > 100 µM (inactive)
- GI50 (SK-MEL-5): > 100 µM (inactive)
- GI50 (MDA-MB-231): > 100 µM (inactive)
- GI50 (HL-60): > 100 µM (inactive)
- GI50 (UACC-257): > 100 µM (inactive)
- GI50 (SF-295): > 100 µM (inactive)
- GI50 (NCI/ADR-RES): > 100 µM (inactive)
- GI50 (HT-29): > 100 µM (inactive)
- GI50 (MCF7): > 100 µM (inactive)
- GI50 (OVCAR-3): > 100 µM (inactive)
- GI50 (PC-3): > 100 µM (inactive)
- GI50 (RPMI-8226): > 100 µM (inactive)
- GI50 (EKVX): > 100 µM (inactive)
- GI50 (DU-145): > 100 µM (inactive)
- GI50 (IGROV-1): > 100 µM (inactive)
- GI50 (TK-10): > 100 µM (inactive)
- GI50 (OVCAR-4): > 100 µM (inactive)
- GI50 (SF-539): > 100 µM (inactive)
- GI50 (SK-OV-3): > 100 µM (inactive)
- GI50 (MDA-MB-435): > 100 µM (inactive)
- GI50 (MOLT-4): > 100 µM (inactive)
- GI50 (A549): > 100 µM (inactive)
- GI50 (HCT-116): > 100 µM (inactive)
- GI50 (SW-620): > 100 µM (inactive)
- GI50 (ACHN): > 100 µM (inactive)
- GI50 (SF-268): > 100 µM (inactive)
- GI50 (HOP-62): > 100 µM (inactive)
- GI50 (OVCAR-8): > 100 µM (inactive)
- GI50 (COLO 205): > 100 µM (inactive)
- GI50 (Hs-578T): > 100 µM (inactive)
- GI50 (NCI-H522): > 100 µM (inactive)
- GI50 (SNB-75): > 100 µM (inactive)
- GI50 (KM12): > 100 µM (inactive)
- GI50 (SNB-19): > 100 µM (inactive)

SMILES: [B].c1ccc([Si](OCCN2CC2)(c2ccccc2)c2ccccc2)cc1
- GI50 (OVCAR-5): 14.6 µM (inactive)
- GI50 (CAKI-1): 16.3 µM (inactive)
- GI50 (NCI-H460): 12.5 µM (inactive)
- GI50 (T47D): 15.6 µM (inactive)
- GI50 (NCI-H226): 16 µM (inactive)
- GI50 (CCRF-CEM): 18.7 µM (inactive)
- GI50 (U-251): 14 µM (inactive)
- GI50 (RXF 393): 4.46 µM (inactive)
- GI50 (M14): 15.9 µM (inactive)
- GI50 (K562): 8.3 µM (inactive)
- GI50 (786-0): 14.2 µM (inactive)
- GI50 (HCC 2998): 13.6 µM (inactive)
- GI50 (UACC-62): 14.2 µM (inactive)
- GI50 (UO-31): 15.2 µM (inactive)
- GI50 (NCI-H23): 15.6 µM (inactive)
- GI50 (HCT-15): 7.66 µM
- GI50 (LOX IMVI): 14.5 µM (inactive)
- GI50 (HOP-92): 2.36 µM (inactive)
- GI50 (BT-549): 17.5 µM (inactive)
- GI50 (MDA-N): 14.9 µM (inactive)
- GI50 (SN12C): 14.3 µM (inactive)
- GI50 (Malme-3M): 14.9 µM (inactive)
- GI50 (SK-MEL-5): 15.8 µM (inactive)
- GI50 (MDA-MB-231): 14.9 µM (inactive)
- GI50 (HL-60): 27.1 µM (inactive)
- GI50 (UACC-257): 15.3 µM (inactive)
- GI50 (SF-295): 14.3 µM (inactive)
- GI50 (NCI/ADR-RES): 14.1 µM (inactive)
- GI50 (HT-29): 14 µM (inactive)
- GI50 (MCF7): 14.5 µM (inactive)
- GI50 (SK-MEL-2): 0.557 µM (active)
- GI50 (OVCAR-3): 16.4 µM (inactive)
- GI50 (PC-3): 13.5 µM (inactive)
- GI50 (RPMI-8226): 13.9 µM (inactive)
- GI50 (EKVX): 12.8 µM (inactive)
- GI50 (DU-145): 13.7 µM (inactive)
- GI50 (IGROV-1): 12.9 µM (inactive)
- GI50 (TK-10): 15.5 µM (inactive)
- GI50 (OVCAR-4): 10.8 µM (inactive)
- GI50 (SF-539): 14 µM (inactive)
- GI50 (SK-OV-3): 14.4 µM (inactive)
- GI50 (MDA-MB-435): 13.8 µM (inactive)
- GI50 (MOLT-4): 14.3 µM (inactive)
- GI50 (A549): 11.9 µM (inactive)
- GI50 (HCT-116): 14.6 µM (inactive)
- GI50 (SW-620): 14.7 µM (inactive)
- GI50 (ACHN): 14.8 µM (inactive)
- GI50 (SF-268): 11 µM (inactive)
- GI50 (HOP-62): 14.9 µM (inactive)
- GI50 (OVCAR-8): 16.6 µM (inactive)
- GI50 (COLO 205): 12.2 µM (inactive)
- GI50 (Hs-578T): 12.4 µM (inactive)
- GI50 (NCI-H522): 12.9 µM (inactive)
- GI50 (KM12): 15.6 µM (inactive)
- GI50 (SNB-19): 0.436 µM (active)
